From patent US20070202047A1, “Polyamine-substituted ligands for use as contrast agents” (priority 2006, published 2007)
Each block holds one compound with its values, some of them ahead of it.

Legend:
[1] = system: B16, MH3924A, Hela, MCF-7, A498 and mouse fibroblasts (3T3 NIH); assay: Intracellular uptake, cell panel of FIG. 7A (ICP-MS); format: cell-based; conditions: 1-h incubation, 10-100 μM, samples of 3×10^6 cells (FIG. 7A)
Procedure: (§1) Cell Uptake Studies. A493 (human kidney), B16 melanoma cells (mouse), HeLa (human cervix), MCF-7 (human breats), MH3924A (Morris hepatoma) cells (rat) and 3T3 NIH (mouse fibroblasts) were obtained from the DKFZ tumor cell collection. 3×10^6 cells of each cell type were grown for 24 hours in culture flasks. Afterwards they were incubated for 1 hour in 10 mL culture media containing 0, 10, 50 and 100 μM of Gd-2.2. Gd-3.2 or Gd-4.2. Afterwards the medium was removed, the cells were trypsinated, washed twice, resuspended in culture medium and counted. The gadolinium uptake was determined in triplicate. […] cells were incubated with 0, 1, 2.5, 5 and 10 μM of the Gd-1.2. and Gd-5.2. for 24 h.
(§2) ICP-MS: Equal cell counts were taken and digested with HNO3 under microwave heating (Mars5, CEM). The samples were diluted with water containing Rh-103 as an internal standard. Gd-157 measurements were performed with a high resolution ICP-mass spectrometer (ELEMENT 2, Finnigan MAT). The gadolinium concentrations were determined from standard curves created prior to sample analyses.

[2] = system: subcutaneous MH3924A tumor; assay: MRI of ACI rats bearing a subcutaneous MH3924A tumor; format: in vivo, rat; conditions: 1 h post Gd, 0.1 mmol/kg i.v., 2.35 T
Procedure: (§3) Animal models. For in vivo tumor studies 2×10^6 MH3924A tumor cells were injected subcutaneously into the right thigh of male ACI rats (Charles River, Sulzfeld, Germany) weighing 220 to 260 g. All animal experiments were performed in compliance with the German Animal Protection Laws (Permission 35-9185.81/G-7-03, Reg.-Praesidium, Karlsruhe, Germany).
MRI. At 25 days after inoculation, when tumors had reached a diameter of ca. 10-15 mm, the MR imaging experiments were initiated. ACI rats were anesthetized by intravenous injection of ketamin (Ketanest®, 0.1 mg/g body wt.; Parke-Davis, Berlin, Germany). Then a dose of 0.1 mmol/kg Magnevist® or Gadovist® (Schering, Berlin, Germany) or one of the synthesized agents Gd-3.1., Gd-5.1. or Gd-6.1. was injected intravenously into a lateral tail vein. For one experiment a higher dose (0.36 mmol/kg) of Magnevist® was used. Individual rats were examined by MRI at 1 h and 24 h post Gd, in the case of Magnevist® also at ca. 15 min post Gd. Proton imaging studies were performed at 2.35 T (100.3 MHz) with a Biospec 24/40 instrument (Bruker BioSpin MRI, Ettlingen, Germany). […] Two transaxial multislice imaging protocols were applied with a field of view of 70×70 mm, 128 time-domain data points, 96 phase-encoding steps, and 16 slices of 2 mm thickness. A multi-spin-echo sequence was used for proton-density and T2-weighted images (repetition time TR=2 s, 12 echoes with echo times TE of 8, 16, 24, . . . 96 ms, number of averages=1), and a spoiled gradient-echo sequence was used for T1-weighted imaging (TR=212 ms, TE=5 ms, flip angle=60°, number of averages=3). The data were Fourier transformed to give a 128×128 image matrix with 0.55 mm pixel resolution. Analogous T1-weighted images with coronal slices were acquired with a field of view of 80×80 mm and 3-mm slice thickness.
Imaging viewing, ROI analysis and export of TIFF files was performed with the freeware MRIcro from Chris Rorden (http://people.cas.sc.edu/rorden/mricro.html).

B16 melanoma cells = assay: Intracellular uptake of gadolinium complexes (ICP-MS); format: cell-based, mouse; conditions: B16 melanoma cells, 1 h incubation, 100 μM
Procedure: (§4) Cell culture. B16 melanoma cells (mouse) and MH3924A Morris hepatoma cells (rat) were obtained from the German Cancer Research Center (DKFZ) tumor bank and grown at 37° C. as stock cultures in RPMI 1640 supplemented with 10% fetal calf serum and 1% glutamine as standard medium under a 5% CO2 atmosphere (all components: Pan Biotech GmbH, Aidenbach, Germany). For contrast agent uptake studies 10^6 cells were inoculated into 25 cm^2 culture flasks (BD Biosciences, Bedford, USA) and grown for 24 h in 10 mL of the standard culture medium. Cells were then incubated for an additional 24 h (1 h for temperature dependence studies) with fresh medium containing 0, 1, 2.5, 5 or 10 μM of the selected gadolinium complex (three replicate flasks for each incubation). Afterwards the medium was removed, cells were trypsinated, washed twice, resuspended in culture medium and counted (typical yields: 3.5-6 million cells). For comparison 2.5×10^5 human melanocytes (Promo Cell, Heidelberg, Germany) were incubated for 24 h with melanocyte growth medium (Promo Cell, Heidelberg, Germany) containing 0, 1, 2.5, 5 or 10 μM of the selected gadolinium complex (two replicate flasks for each incubation). The work up procedure was as described above typically yielding 2.5×10^5 cells. Cultured human hepatocytes (Cytonet GmbH, Weinheim, Germany) embedded in a collagen matrix in a 12 well microtiter plate, with 6×10^5 viable cells per well were incubated for 24 h in hepatocyte growth medium (Cytonet GmbH, Weinheim, Germany) containing the same concentration series of selected gadolinium complexes. Afterwards the medium was removed, cells were separated using collagenase (Roche Diagnostics, Mannheim, Germany). After digestion the cells were washed twice with PBS, resuspended in culture medium and counted (typical yields: 6×10^5 cells per tube). The intracellular gadolinium content was determined by ICP-MS as described below.
(§5) ICP-MS. Samples containing the above mentioned number of harvested cells were digested with 50% concentrated HNO3 (Superselect; Merck, Darmstadt, Germany) under microwave heating with a Mars 5 apparatus (CEM GmbH, Kamp-Lintfort, Germany). To each sample 100 μL of an aqueous solution of rhodium chloride (1 μg/mL) were added so that Rh-103 could be used as an internal quantification standard. Gd-160 measurements were performed with the ICP-MS instrument mentioned above. The gadolinium concentrations were determined using standard curves created prior to cell analyses. For each uptake incubation condition triplicate cell samples were analyzed, and Gd content for each sample was recorded as the mean of two MS determinations.
(§6) Intracellular Uptake of Gadolinium Complexes. B16 melanoma and MH3924A hepatoma cells as well as human melanocytes and hepatocytes were incubated for 24 h in the presence of the gadolinium complexes shown in FIG. 1, using concentrations in the range of 1-10 μM. Incubations with the unsubstituted [Gd(DTPA)(H2O)]^2−complex (Magnevist®) served as controls. Following cell harvest and hydrolysis, inductively coupled plasma mass spectrometry (ICP-MS) with direct detection of gadolinium was used to quantitate complex uptake (triplicate cultures for each incubation).
as §1, with “h. […]” for “h.”

[3] = system: MH3924A Morris hepatoma cells; assay: as above; format: cell-based, rat; conditions: MH3924A
Procedure: as §4, §5, §6
as §1, with “h. […]” for “h.”

[4] = system: A498 (human kidney carcinoma); assay: as above; format: cell-based; conditions: A498, 1 h incubation, 100 μM
Procedure: as §1, §2

[5] = system: HeLa (human cervix carcinoma cells); assay: as above; format: cell-based; conditions: 1 h incubation, 100 μM
Procedure: as §1, §2

[6] = system: MCF-7 (human breast cancer); assay: as above; format: cell-based; conditions: MCF-7, 1 h incubation, 100 μM
Procedure: as §1, §2

human serum albumin = target: T1, human serum albumin (Homo sapiens, UniProt P02768); assay: Serum albumin binding (ultrafiltration, ICP-MS); format: in vitro ADME; conditions: 20 μM complex, 40 g/L HSA, 37° C., ultrafiltrate
T1 construct: purchased Behring, Bern, Switzerland
T1 sequence (P02768 25-609): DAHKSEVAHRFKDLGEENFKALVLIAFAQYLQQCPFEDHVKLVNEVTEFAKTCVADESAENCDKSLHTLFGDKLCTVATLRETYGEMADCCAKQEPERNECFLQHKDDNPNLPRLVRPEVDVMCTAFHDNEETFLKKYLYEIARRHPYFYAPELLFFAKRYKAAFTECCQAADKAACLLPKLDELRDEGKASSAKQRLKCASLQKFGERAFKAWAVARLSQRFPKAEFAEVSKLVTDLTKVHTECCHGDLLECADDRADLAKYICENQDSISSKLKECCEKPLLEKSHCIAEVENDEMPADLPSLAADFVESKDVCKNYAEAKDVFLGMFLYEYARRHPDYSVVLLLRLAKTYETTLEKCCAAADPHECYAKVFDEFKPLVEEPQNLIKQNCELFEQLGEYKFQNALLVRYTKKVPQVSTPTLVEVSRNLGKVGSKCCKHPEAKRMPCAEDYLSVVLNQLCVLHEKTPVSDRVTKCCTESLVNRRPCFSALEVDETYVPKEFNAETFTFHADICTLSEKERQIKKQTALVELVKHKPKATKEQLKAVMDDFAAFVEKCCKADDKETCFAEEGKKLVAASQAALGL
Procedure: Serum albumin binding. Solutions containing 20 μM Gd-3.1., Gd-5.1. or Gd-6.1. and 40 g/L human serum albumin (Behring, Bern, Switzerland) were incubated at 37° C. for 30 or 90 min. The solutions were subjected to ultrafiltration (filter cutoff 20 kD; Sartorius, Göttingen, Germany), and the amount of unbound complex was determined in the ultrafiltrate with ICP-MS (n=2).
HSA Binding: 20 μM solutions of the complexes were incubated at 37° C. for 30 and 90 minutes in a solution of 40 g HSA/L (Behring, Bern; Switzerland). The amount of unbound complex was determined in ultrafiltrates with ICP-MS.

Complex stability = format: physicochemical; conditions: method of Sherry et al.
Procedure: Complex stability. The stability constants were determined using a method of Sherry et al. (39).

[7] = Biodistribution in BALB/c nu/nu mice carrying B16 melanoma; format: in vivo, mouse; conditions: 1 h post i.v. injection, perfused organs, B16 melanoma-bearing mice
Procedure: as §3, with “model.” for “models.”, “3×10^6 B16” for “2×10^6 MH3924A”, “BALB/c nu/nu mice” for “ACI rats”, “18” for “220”, “21” for “260”
Biodistribution data. At 10 days after tumor inoculation, when tumors had reached a diameter of ca. 7-8 mm, the biodistribution experiments were initiated. Each animal (18-21 g) was given an intravenous tail-vein injection of 975 μmol/kg Gadovist® (Schering, Berlin, Germany) or 1 μmol/kg of Gd-2.2. 1 h post-injection (p.i.), the animals were weighed, sacrificed by cervical dislocation, perfused and dissected. Organs or tissues were blotted dry and weighed. Samples containing the tumor or organs were digested with concentrated HNO3 (Superselect; Merck, Darmstadt, Germany) and H2O2 under microwave heating with a Mars 5 apparatus (CEM GmbH, Kamp-Lintfort, Germany). To each sample 100 μL of an aqueous solution of rhodium chloride (1 μg/mL) were added so that Rh-103 could be used as an internal quantification standard. […] The gadolinium concentrations were determined using standard curves created prior to tissue analyses. The results are expressed as nmol Gd/g tissue scaled on the dose of 100 μmol of the corresponding Gd complex.

SMILES: O=C([O-])CN1CCN(CC(=O)[O-])CCN([C@H](CO)[C@H](O)CO)CCN(CC(=O)[O-])CC1.[Gd+3] (racemic) [Gadovist, gadobutrol, reference compound]
intracellular uptake (below ICP-MS detection limit) [1]: < 0.01 fmol/cell | contrast ratio tumor vs. muscle tissue, T1 weighting [2]: ≤ 1.06

complex found to be free (unbound) (human serum albumin): 92±5% | complex stability constant (Complex stability): about 3.45×10^21
SMILES: NCCN(CCN)C(=O)CN1CCN(CC(=O)[O-])CCN(CC(=O)[O-])CCN(CC(=O)[O-])CC1.[Gd+3] [Gd-2.2]
intracellular uptake of gadolinium complex (B16 melanoma cells): 0.057 fmol/cell | intracellular gadolinium content after 1 h incubation plus additional 24 h in complex-free medium [3]: the same as for the 1 h incubation | intracellular uptake of gadolinium complex ([3]; 1 h incubation with 100 μM complex): 0.222 fmol/cell | intracellular uptake of gadolinium complex [4]: 0.023 fmol/cell | intracellular uptake of gadolinium complex [5]: 0.0078 fmol/cell | intracellular uptake of gadolinium complex [6]: 0.0086 fmol/cell | preferential tissue binding (biodistribution) [7]: binds preferentially to kidneys and skin tissue, but shows high tumor uptake as well
